Data set [1] is described as follows: Artificial membrane permeability assay (PAMPA). It counts as in vitro ADME. The conditions noted are these: 5 h incubation, first table.
Experimental: In order to test the ability SDC-TRAP molecules of the invention to enter cells, an artificial membrane permeability assay (“PAMPA”) was used. […] LC/MS was used in conjunction with PAMPA assays to determine the ability of the SDC-TRAP molecules of the invention to permeate cells.
Pre-coated PAMPA plates were warmed to room temperature for at least 30 minutes prior to adding assay components.
Stock solutions were prepared with the SDC-TRAP molecules to be tested. In order to make a working solution, either 50 μL of 100 μM Stock in DMSO+950 μL of PBS or 50 μL of 200 μM stock was added to 96 deep well plate, resulting in a 5 μM final concentration or a 10 μM final concentration, respectively. 300 μL of the working solution containing each compound to be tested was added to the appropriate well of a donor PAMPA plate. 200 μL of PBS was added into the corresponding wells of an acceptor PAMPA plates.
The acceptor plate was lowered onto the donor plate and allowed to incubate for five hours. After five hours, a 50 μL aliquot was removed from each well of each plate and added into a new 96 deep-well plate.
100 μL of methanol containing an internal standard was added to each aliquot and analyzed by LC/MS. The internal standard was 150 ng/ml SDC-TRAP-0002.
In order to calculate the permeability for each SDC-TRAP molecule and the control molecules, the following formula was used:
Data set [2] can be described thus: Stability in mouse plasma. It counts as in vitro ADME. The following applies: for % Remaining: 1 h; for Mouse (10 μM) % Remaining 1 h (37° C.) §: § not explained.
Experimental: SDC-TRAP-0022 and SDC-TRAP-0028 were incubated in human and mouse plasma for 2 h at 37° C. and assayed for integrity at 0.25, 0.5, 1 and 2 h. The values reported below are the remaining of the parent compound at the end of the 2 h incubation period.
This solution was used to precipitate all plasma samples in the study. 200 μL was pipetted into a 96 deepwell plate over dry ice. 10 μL of 1 mM stock in DMSO was added to a 1.5 mL microfuge tube, then 990 μL of plasma. Samples were mixed by vortex, then 50 μL of each sample was added in triplicate to a 96-well plate containing internal standard solution. This was designated the 0 hour time point sample. 250 μL of the remaining plasma sample was added to each of four 96 deepwell plates—one per time point. Samples were incubated at 37° C. with gentle shaking for 0.25, 0.5, and 1 hour. After each time point, one plate of each sample was removed from the shaker and placed on wet ice for approximately 2 minutes. 50 μL plasma aliquots (in triplicate) were added to the deepwell plate containing internal standard solution. After the last time point was extracted, the 96 deepwell plate was vortexed, then centrifuged at 2-8° C. 150 μL of supernatant was collected and 25 μL of water was added. Samples were mixed and analyzed by LC-MS/MS.
The stability of seven SDC-TRAP types in mouse plasma was measured as follows. 990 μL mouse plasma aliquots from a common stock were spiked with 10 μL of 1 mM stock of one of seven SDC-TRAP samples identified in the table below. Each sample was mixed and divided into 250 μL aliquots, each representing time points 0, 15 minutes, 30 minutes or 1 hour. At the prescribed time point, 3×50 μL samples were each mixed with 200 μL of methanol containing internal standard and held on dry ice until all time point samples were extracted. The samples collectively were vortex mixed for 1.5 minutes at 1500 rpm, then centrifuged at 4400 rpm for 10 minutes at 8° C.
In the next data set the target is T1, Hsp90α (Homo sapiens, UniProt P07900).
T1 construct: purchased BPS Bioscience 50294
The data set is described as follows: Hsp90α binding assay (fluorescence polarization, FITC-labeled geldanamycin). As for the experimental part:
An Hsp90^α fluorescence assay kit from BPS Bioscience (Cat #50294) containing Hsp90 recombinant enzyme, FITC-labeled geldanamycin, assay buffer and a low binding 384-well plate was used to assay Hsp90^α binding. Dithiothreitol (DTT) (Cat # D0643) and bovine serum albumin (BSA) (Cat # A2153) were obtained from Sigma-Aldrich. Fluorescence polarization was measured using a PHERAstar microplate reader (BMG LABTECH GmbH, Ortenberg, Germany.)
The compounds were diluted to 1 mM in DMSO and loaded into a compound dilution plate to make 3-fold dilutions yielding a total of 8 concentrations. 1 μL of compound was transferred from the dilution plate to the low binding assay plate provided in the assay kit. 5 mL of Hsp90^α binding solution was prepared having a final concentration of 7 ng/μL Hsp90^α, 5 nM FITC-labeled geldanamycin, 2 mM DTT and 0.1 mg/mL BSA. 49 μL of binding solution was added to each microplate well, incubated at room temperature for 1 hour, then read using the PHERAstar microplate reader. The high control sample contained no compound plus Hsp90^α; the low control sample contained no compound and no Hsp90^α. […] The IC50 was calculated using GraphPad Prism 4 software.
A general note: Fluorescence polarisation rises when a labelled molecule tumbles more slowly, as on binding a larger partner.

The nature of data set [3]: Tissue distribution of SDC-TRAPs in tumor-bearing mice (plasma, tumor, heart). The conditions noted are these: mouse, in vivo; for Kp: tissue distribution of SDC-TRAP-0076, read-out: Tumor/Plasma Ratio.
Experimental: Using the 10 mM stock solutions of the SDC-TRAP molecule and its Hsp90i binding moiety and effector moiety in DMSO, spiking solutions were prepared at 0.025, 0.05, 0.1, 0.5, 1, 5, 10, 50, 100, 250, and 500 μM in DMSO. 5 μL of each spiking solution was added to a 96-deep well plate.
Quality control standards were prepared from 5 μL of 0.1, 1, and 10 μM calibration standard spiking solution added in triplicate into 96-deep well plate and adding 50 μL of matrix (plasma or homogenized tumor).
To prepare test samples, test plasma was diluted as needed using blank plasma. Tumor samples were pulverized in liquid nitrogen, weighed, and homogenized in PBS at 5× volume to sample weight. 50 μL of unknown plasma or homogenized tumor sample was mixed with 5 μL of DMSO. The samples were extracted by precipitating calibration standards, QC standards, and unknown samples with 200 μL of internal standard solution. The samples were mixed by vortex at room temperature for approximately 1.5 minutes, then centrifuge at 2-8° C. 150 μL of supernatant was collected and 25 μL of water added. Samples were mixed and analyzed by LC-MS/MS.
Samples of plasma, heart and tumor were excised from a euthanized mouse, homogenized in PBS at 5 times tissue weight and diluted in 5 μL DMSO/50 μL sample. Prior to analysis, 55 μL samples and calibration standards were precipitated in 200 μL methanol in 96-well plates. Samples were mixed on a vortex mixer for 1.5 minutes at 1500 rpm at room temperature, then centrifuged at 4400 rpm for 10 minutes at 8° C. 150 μL of each supernatant was transferred to a well of a new 96-well plate, and 25 μL of water was added and mixed with the sample. […] For the analysis of samples from female SCID mice, a gradient of solvent A (water/0.1% formic acid) and B (acetonitrile/0.1% formic acid) was used as in Table A below.
For data set [4], the system named is MCF-7 breast cancer cells. The data set is described as follows: Mouse xenograft efficacy in an MCF-7 breast cancer model. Type of data set: in vivo. The following applies: FIG. 8. On the procedure: MCF-7 breast cancer cells were purchased from ATCC. […] Fetal bovine serum was then added to the medium. The final concentration of fetal bovine serum was 10%. Cells were cultured at 37° C. and 5% CO2.
Mice that were not put on treatment were euthanized. Animals were sourced through CRL (Wilmington, Mass.).

The subject of the next data set is H 3211 NSLC cells. The data set is described as follows: IC50 of continuous and pulsed exposure to SDC-TRAPs. It counts as cell-based. The conditions noted are these: 72 h, read-out: IC50, 72 h-continuous, H 3211 NSLC cells, 7.5 × 10^3 cells/well; 1st of 3 columns.
Data set [5] in a line: Stability in cell culture media. The following applies: § not explained.
Experimental: 98 μL of DMEM+10% FBS, +1% P/S, +1.5 g/L sodium bicarbonate cell culture media was mixed with 2 μL of DMSO and aliquotted into 96-well plates at 250 μL per 0, 1, 2, and 18 hour time point.
3×50 μL media samples in 96 were held in 96-well plates at −80° C. until the last time point was extracted. 200 μL of methanol containing IS was added and mixed by vortex at 1500 rpm for 1.5 minutes at room temperature. The samples were centrifuged at 4400 rpm for 10 minutes at 8° C.
The nature of data set [6]: Tissue distribution of ganetespib in female CD-1 nu/nu mice bearing RERF human NSCLC xenografts. The conditions noted are these: ganetespib 50 mg/kg IV. It counts as in vivo, mouse. On the procedure: To confirm the distribution of ganetespib in blood, livers, kidneys, brains, hearts, lungs and tumors after IV administration of ganetespib to female CD-1 nu/nu mice bearing RERF human NSCLC xenografts, and to examine metabolic profiles of ganetespib in plasma, red blood cells, and above tissues.
Animals: female CD-1 nu/nu mice bearing RERF human NSCLC xenografts (N=3/group)
Formulation: 10% DMSO, 18% Cremophor RH40, 3.6% dextrose solution (DRD)
Bleeding time points: 5 min, 6, 24 hr
Collected tissues: blood (plasma and red blood cells (RBC)), liver, kidneys, brain, heart, lung, tumor
Protein precipitation: 50 μL of 10 times diluted plasma or RBC+150 μL ACN (10 mM NH4OAc), vortexed and centrifuged at 10000 rpm for 8 min; 150 μL supernatant+150 μL water (10 mM NH4OAc)
Protein precipitation: 100 μL homogenized tissue (1:3 tissue: PBS buffer)+100 μL ACN (10 mM NH4OAc), vortexed and centrifuged at 10000 rpm for 8 min

Structures are written as SMILES. Like-named read-outs stand apart in the source and are kept apart here. Bounds are passed on as bounds.

Broadly, the Papp is the rate of passage across a membrane or cell layer, normalised by area and donor concentration. As a reminder, the EC50 is the concentration that produces a half-maximal response. A higher EC50 goes with weaker potency.

`CC(C)c1cc(-c2nnc(O)n2-c2ccc3c(ccn3CCNC(=O)CCCCCNC(=O)CCCC[C@H]3SCC4NC(=O)NC43)c2)c(O)cc1O` (stereo in doubt) [SDC-TRAP-0234, N-(2-(5-(3-(2,4-dihydroxy-5-isopropylphenyl)-5-hydroxy-4H-1,2,4-triazol-4-yl)-1H-indol-1-yl)ethyl)-6-(5-((3aR,4R,6aS)-2-oxohexahydro-1H-thieno[3,4-d]imidazol-4-yl)pentanamido)hexanamide] displayed a Papp at 5 h in data set [1] of 0.0123 ×10⁻⁶ cm/s.

Consider `CCc1c2c(nc3ccc(OC(=O)N(C)C4CCN(C(=O)CCn5ccc6cc(-n7c(O)nnc7-c7cc(C(C)C)c(O)cc7O)ccc65)CC4)cc13)-c1cc3c(c(=O)n1C2)COC(=O)C3(O)CC` (stereo not drawn) [SDC-TRAP-0184, 4,11-diethyl-4-hydroxy-3,14-dioxo-3,4,12,14-tetrahydro-1H-pyrano[3′,4′:6,7]indolizino[1,2-b]quinolin-9-yl (1-(3-(5-(3-(2,4-dihydroxy-5-isopropylphenyl)-5-hydroxy-4H-1,2,4-triazol-4-yl)-1H-indol-1-yl)propanoyl)piperidin-4-yl)(methyl)carbamate], for which the “% Remaining” value in data set [2] (mouse plasma, 37° C.) worked out at 18.0%. In addition, the concentration for a half-maximal effect (EC50) at Hsp90α worked out at 86.6 nM.

For the molecule `CCc1c2c(nc3ccc(OC(=O)N4CCC(CCn5ccc6cc(-n7c(O)nnc7-c7cc(C(C)C)c(O)cc7O)ccc65)CC4)cc13)-c1cc3c(c(=O)n1C2)COC(=O)[C@]3(O)CC` [SDC-TRAP-0063, 4,11-diethyl-4-hydroxy-3,14-dioxo-3,4,12,14-tetrahydro-1H-pyrano[3′,4′:6,7]indolizino[1,2-b]quinolin-9-yl 4-(2-(5-(3-(2,4-dihydroxy-5-isopropylphenyl)-5-hydroxy-4H-1,2,4-triazol-4-yl)-1H-indol-1-yl)ethyl)piperidine-1-carboxylate], the “% Remaining” value in data set [2] (mouse, plasma, 10 μM) turned out to be 11.1%. The EC50 on Hsp90α came out at 158 nM. Further, the “Selective targeting of tumor” value in data set [3] was “selectively targets and accumulates in tumor cells”. Besides, in data set [4] (150 mg/kg/1×wk compared to 100 mg/kg/1×wk), the “Suppression of increase in tumor volume, higher versus lower dose” value is “appears to prolong the suppression of increase in tumor volume compared to a lower dose”. Further, in data set [4] (150 or 100 mg/kg/1×wk), the “Tumor growth suppression versus irinotecan alone or ganetespib plus irinotecan” value is recorded as “greater tumor growth suppression than effector moiety irinotecan alone”.

`CCc1c2c(nc3ccc(OC(=O)N(C)CCOCCn4ccc5cc(-n6c(O)nnc6-c6cc(C(C)C)c(O)cc6O)ccc54)cc13)-c1cc3c(c(=O)n1C2)COC(=O)C3(O)CC` (stereo not drawn) [SDC-TRAP-0029, 4,11-diethyl-4-hydroxy-3,14-dioxo-3,4,12,14-tetrahydro-1H-pyrano[3′,4′:6,7]indolizino[1,2-b]quinolin-9-yl (2-(2-(5-(3-(2,4-dihydroxy-5-isopropylphenyl)-5-hydroxy-4H-1,2,4-triazol-4-yl)-1H-indol-1-yl)ethoxy)ethyl)(methyl)carbamate]: the “Mouse (10 μM) % Remaining 1 h (37° C.) §” value in data set [2] (mouse plasma, 10 μM) amounted to 44%. The “% Remaining” value in data set [2] (mouse plasma, 37° C.) is reported as 47%. Moreover, in the data set with H 3211 NSLC cells, the IC50 was determined as 79 nM. For the same molecule, the “Media (5 μM) % Remaining 1 h (37° C.) §” value in data set [5] is reported as 43%.

Turning to `CCc1c2c(nc3ccc(OC(=O)N4CCN(c5ccc(-n6c(O)nnc6-c6cc(C(C)C)c(O)cc6O)cc5)CC4)cc13)-c1cc3c(c(=O)n1C2)COC(=O)C3(O)CC` (stereo not drawn) [SDC-TRAP-0045, 4,11-diethyl-4-hydroxy-3,14-dioxo-3,4,12,14-tetrahydro-1H-pyrano[3′,4′:6,7]indolizino[1,2-b]quinolin-9-yl 4-(4-(3-(2,4-dihydroxy-5-isopropylphenyl)-5-hydroxy-4H-1,2,4-triazol-4-yl)phenyl)piperazine-1-carboxylate], in data set [2] (mouse plasma, 10 μM), the “Mouse (10 μM) % Remaining 1 h (37° C.) §” value turned out to be 34%. For the same molecule, the “% Remaining” value in data set [2] (mouse plasma, 37° C.) came out at 45%. The “Media (5 μM) % Remaining 1 h (37° C.) §” value in data set [5] is on record as 72%.

For `CC(C)c1cc(-c2n[nH]c(=O)n2-c2ccc3c(ccn3C)c2)c(O)cc1O` [ganetespib], in data set [6] (5 min), the Concentration in tumor worked out at 2350 nM. The Concentration in plasma result in data set [6] (24 hr) is listed as “<LLOQ”. Also, the “Persistence in tumor versus plasma and other tissues” value in data set [6] (up to 24 hr) was “persist longer in tumor than in plasma or any other tissues studied”.

Consider `CCc1c2c(nc3ccc(OC(=O)N4CCN(Cc5ccc(-n6c(O)nnc6-c6cc(C(C)C)c(O)cc6O)cc5)CC4)cc13)-c1cc3c(c(=O)n1C2)COC(=O)C3(O)CC` (stereo not drawn) [SDC-TRAP-0046, 4,11-diethyl-4-hydroxy-3,14-dioxo-3,4,12,14-tetrahydro-1H-pyrano[3′,4′:6,7]indolizino[1,2-b]quinolin-9-yl 4-(4-(3-(2,4-dihydroxy-5-isopropylphenyl)-5-hydroxy-4H-1,2,4-triazol-4-yl)benzyl)piperazine-1-carboxylate], for which, in data set [2] (mouse plasma, 10 μM), the “Mouse (10 μM) % Remaining 1 h (37° C.) §” value came to 50%. Also, the “% Remaining” value in data set [2] (mouse plasma, 37° C.) stood at 52%. The “Media (5 μM) % Remaining 1 h (37° C.) §” value in data set [5] came out at 62%.

As to `CCNC(=O)c1nnc(-c2cc(C(C)C)c(O)cc2O)n1-c1ccc(CN2CCC(C(=O)N3CCC(C(=O)OC4(CC)C(=O)OCc5c4cc4n(c5=O)Cc5c-4nc4ccc(O)cc4c5CC)CC3)CC2)cc1` (stereo not drawn) [SDC-TRAP-0076, 4,11-diethyl-9-hydroxy-3,14-dioxo-3,4,12,14-tetrahydro-1H-pyrano[3′,4′:6,7]indolizino[1,2-b]quinolin-4-yl 1-(1-(4-(3-(2,4-dihydroxy-5-isopropylphenyl)-5-(ethylcarbamoyl)-4H-1,2,4-triazol-4-0)benzyl)piperidine-4-carbonyl)piperidine-4-carboxylate], in data set [2] (mouse plasma, 37° C.), the “% Remaining” value is listed as 96%. Also, the Kp in data set [3] (1 h) is 0.17; in data set [3] (6 h), 2.25; in data set [3] (24 h), 20.4; in data set [3] (48 h), 6.85; in data set [3] ([…]) it was 0.01.

The record behind these values is patent US10675360B2 (MADRIGAL PHARMACEUTICALS, INC., priority 2014, dated 2020).
